Source: patent US20060134063A1, “Agents for proliferating pancreatic beta-cells of the islets of langerhans, agents for suppressing apoptosis of said cells, and screening of candidate compounds for these agents” (priority 2000, published 2006)

Experiments:
[1] = system: Reg gene; test: RT-PCR of Reg gene expression in RINm5F cells; assay type: cell-based, rat; conditions: 24 h with stimulants
Description: The Reg gene expression was analyzed by RT-PCR. The cells were harvested after 24 h of culturing in a medium supplemented with stimulants, and total RNA was prepared using cesium trifluoroacetate as described in Takasawa, S. et al. (1993) J. Biol. Chem., 268, 26052-26054. RT-PCR was performed using primers corresponding to nucleotides 23 to 43 and 572 to 593 of rat Reg mRNA (Terazono, K. et al. (1988) J. Biol. Chem., 263, 2111-2114).

[2] = system: 5'-flanking region of the rat Reg gene; test: Reg promoter/luciferase reporter assay in RINm5F cells; assay type: cell-based; conditions: 2,303-bp Reg 5'-flanking fragment; 24 h stimulation
Description: A 2,303-bp fragment containing the 5′-flanking region of Reg gene was fused to the luciferase gene and transfected into RINm5F β-cells.
Specifically, luciferase reporter gene constructs were generated as described in Miyashita, H. et al. (1994) Biochim. Biophys. Acta, 1219, 241-243. RINm5F cells were seeded at 1×10^5 cells/well in 24-well dish. After 48 h, 3.0 μg of test plasmid and 0.2 μg of pCMV-SPORT β-gal (Life Technologies, Inc.) were transfected by lipofection (Felgner, J. H. et al. (1994) J. Biol. Chem., 269, 2550-2561) using DMRIE-C™ (Life Technologies, Inc.). After 24 h, the medium of each dish was replaced with fresh medium containing stimulants and incubated further for 24 h. Cells were harvested in 1 ml of ice-cold phosphate-buffered saline (PBS), washed twice with PBS, and extracts were prepared in extraction buffer (0.1 M potassium phosphate, pH 6.8, 1 mM DTT). The protein concentration was determined using a Coomassie reagent kit (Pierce) and bovine serum albumin as a standard. Luciferase activity was determined by a chemiluminescence substrate using a Pica Gene™ Luminescence Kit (Toyo Ink Mfg. Co, Ltd., Tokyo, Japan). β-galactosidase activity was determined using Aurora™ GAL-XE (ICN).

[3] = target: T1, poly(ADP-ribose) synthetase/polymerase (PARP) (Rattus norvegicus, UniProt P27008); test: GMSA binding reaction of RINm5F nuclear extracts, effects of ADP-ribosylation; assay type: biochemical; conditions: for intensity of the IL-6/dexamethasone/nicotinamide-dependent GMSA band: added to the binding reaction prior to the 32P-probe
T1 construct: Nuclear extracts from RINm5F cells were prepared as described; endogenous in cells; host or cells: RINm5F (rat insulinoma) nuclear extract
Description: The nuclear extract (10 μg) was incubated in a final volume of 20 μl of buffer containing 20 mM Tris-HCl (pH 7.9), 2 mM MgCl2, 50 mM NaCl, 2 mM EDTA, 10% glycerol, 0.1% Nonidet P-40, 1 mM DTT, 50 μg/ml bovine serum albumin and 1 μg of poly(dI-dC). After incubation for 10 min at room temperature, 2.5 pmol of double-stranded DNA, previously labeled by an exchange reaction using MEGALABEL (Takara Shuzo) and [γ-^32P]ATP (Amersham Pharmacia Biotech), were added and incubated for 30 min at room temperature, then the binding reactions were resolved on pre-run 6% acrylamide gel. […] After electrophoresis, DNA/proteins were electrophoretically transferred to a PolyScreen™ PVDF membrane (NEN).
Poly(ADP-ribosyl)ation of nuclear proteins was performed in the same condition as GMSA in the presence of 62 nM [adenylate-^32P]NAD^+ (2×10^6 cpm, NEN). The ADP-ribosylated proteins were precipitated by the addition of 9 volume of acetone, separated by SDS-PAGE (12.5%) and autoradiographed.

[4] = system: 90% depancreatized rats; conditions: cited from earlier work
[5] = system: RINm5F cell lines, #1, #6, and #24, which stably express the Reg protein receptor; test: TUNEL apoptosis assay in RINm5F cell lines #1, #6, #24 expressing Reg protein receptor; assay type: cell-based, rat; conditions: HGF 0, 2.5, 25 ng/ml; 24 h; every cell line
Description: Rat insulinoma RINm5F cell lines, #1, #6, and #24, which stably express Reg protein receptor (Kobayashi, S. et al. (2000) J. Biol. Chem. 275, 10723-10726) were similarly cultured as in Example 4 and 1,000 nM Reg protein and HGF at varied concentrations, 0, 2.5, and 25 ng/ml were added thereto. Twenty-four hours after the addition of Reg protein/HGF, apoptosis was measured by TUNEL method using an Apoptosis Screening kit (Wako Pure Chemical Industries Ltd., Osaka, Japan) as described in Kobayashi, S. et al. (2000) J. Biol. Chem. 275, 10723-10726.

[6] = system: Reg protein; test: Immunoblot of secreted Reg protein in RINm5F culture medium; assay type: cell-based, rat; conditions: 24 h incubation with stimulants
Description: The Reg protein levels in the RINm5F cultured media were examined after stimulation. After 24-hour incubation of the cells in a medium supplemented with stimulants, the medium was collected, and subjected to immunoblot analyses as described in Watanabe, T. et al. (1990) J. Biol. Chem., 265, 7432-7439. The medium of RINm5F cells was subjected to SDS polyacrylamide gel electrophoresis (SDS-PAGE) and electrotransferred to a PVDF membrane as described in Takasawa, S. et al. (1993) J. Biol. Chem., 268, 26052-26054. Western blotting was carried out using an anti-rat Reg monoclonal antibody (Terazono, K. et al. (1990) Diabetologia, 33, 250-252).

[7] = system: RINm5F cell lines, #1, #6, and #24, which stably express the Reg protein receptor; conditions: 1,000 nM Reg protein added to culture media; cited from earlier work
[8] = system: non-obese diabetic (NOD) mice; conditions: cited from earlier work

T1 sequence (P27008 whole entry): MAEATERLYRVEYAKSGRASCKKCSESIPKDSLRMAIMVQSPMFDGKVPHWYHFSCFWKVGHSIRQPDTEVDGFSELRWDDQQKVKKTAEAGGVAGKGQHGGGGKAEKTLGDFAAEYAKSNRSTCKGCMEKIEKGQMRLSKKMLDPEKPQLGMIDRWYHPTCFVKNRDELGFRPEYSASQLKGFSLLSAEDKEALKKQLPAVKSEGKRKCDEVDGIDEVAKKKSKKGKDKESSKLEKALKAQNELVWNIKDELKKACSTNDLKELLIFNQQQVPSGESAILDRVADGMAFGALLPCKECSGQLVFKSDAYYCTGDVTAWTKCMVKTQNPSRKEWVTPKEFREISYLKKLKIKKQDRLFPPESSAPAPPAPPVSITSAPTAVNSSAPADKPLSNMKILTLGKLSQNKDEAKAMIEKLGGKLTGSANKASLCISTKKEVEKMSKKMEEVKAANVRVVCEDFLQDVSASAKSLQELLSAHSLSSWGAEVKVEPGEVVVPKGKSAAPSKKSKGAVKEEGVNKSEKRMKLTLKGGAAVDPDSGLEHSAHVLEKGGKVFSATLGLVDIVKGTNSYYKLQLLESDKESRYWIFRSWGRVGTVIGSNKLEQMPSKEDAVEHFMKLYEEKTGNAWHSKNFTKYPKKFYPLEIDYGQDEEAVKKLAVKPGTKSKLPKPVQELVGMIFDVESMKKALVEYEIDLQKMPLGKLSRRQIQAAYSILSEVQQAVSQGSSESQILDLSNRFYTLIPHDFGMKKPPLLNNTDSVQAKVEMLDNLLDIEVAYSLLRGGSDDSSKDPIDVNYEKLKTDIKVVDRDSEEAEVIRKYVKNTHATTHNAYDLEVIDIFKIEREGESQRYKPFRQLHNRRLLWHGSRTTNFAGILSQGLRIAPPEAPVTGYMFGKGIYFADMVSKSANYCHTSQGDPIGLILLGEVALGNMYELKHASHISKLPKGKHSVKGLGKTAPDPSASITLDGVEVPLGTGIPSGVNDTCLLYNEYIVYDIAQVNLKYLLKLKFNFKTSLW

Molecule: NC(=O)c1cccc(N)c1 [3-aminobenzamide]
- Reg gene expression (Reg mRNA) [1]: no effect on Reg expression
- luciferase activity (result in words) [2]: ineffective
- IC50 ([3]; 1 mM β-NAD+ in the GMSA binding reaction, read-out: concentrations of half maximal inhibition (quenching of the effect of β-NAD+ on the GMSA band)): 30 µM
- development of diabetes after 90% pancreatectomy ([4]; PARP inhibitor-treated rats): preventing the development of diabetes

Molecule: Nc1ncnc2c1ncn2[C@@H]1O[C@H](COP(=O)(O)OP(=O)(O)OC[C@H]2OC(O)[C@H](O)[C@@H]2O)[C@@H](O)[C@H]1O (some centres unmarked) [ADP-ribose]
- intensity of the IL-6/dexamethasone/nicotinamide-dependent GMSA band [3]: did not attenuate the band intensity

Molecule: N=c1c2ncn3c2ncn1[C@@H]1O[C@H](COP(=O)(O)OP(=O)(O)OC[C@H]2O[C@@H]3[C@H](O)[C@@H]2O)[C@@H](O)[C@H]1O [cyclic ADP-ribose]
- intensity of the IL-6/dexamethasone/nicotinamide-dependent GMSA band [3]: did not attenuate the band intensity

Molecule: NC(=O)c1ccc[n+]([C@H]2O[C@H](COP(=O)(O)OP(=O)(O)OC[C@H]3O[C@@H](n4cnc5c(N)ncnc54)[C@H](O)[C@@H]3O)[C@@H](O)[C@H]2O)c1 [α-NAD^+]
- intensity of the IL-6/dexamethasone/nicotinamide-dependent GMSA band [3]: not

Molecule: NC(=O)c1ccc[n+]([C@@H]2O[C@H](COP(=O)([O-])OP(=O)(O)OC[C@H]3O[C@@H](n4cnc5c(N)ncnc54)[C@H](O)[C@@H]3O)[C@@H](O)[C@H]2O)c1 [β-NAD^+]
- intensity of the IL-6/dexamethasone/nicotinamide-dependent GMSA band [3]: attenuated

Molecule: HGF: hepatocyte growth factor (HGF; Sigma)
- apoptosis induced by 1,000 nM Reg protein (TUNEL) [5]: concentration-dependently inhibited apoptosis

Molecule: IL-1β: IL-1β (Sigma), stimulant
- Reg gene expression (Reg mRNA) [1]: no effect on Reg expression

Molecule: IL-6: interleukin (IL)-6, a cytokine whose receptor is gp130 (Genzyme)
- Reg protein secretion into the medium [6]: did not induce Reg protein secretion
- Reg gene expression (Reg mRNA) [1]: no effect on Reg expression
- luciferase activity (result in words) [2]: ineffective

Molecule: TNFα
- Reg gene expression (Reg mRNA) [1]: no effect on Reg expression

B1: Reg protein: product of Reg (regenerating gene), stimulates β-cell proliferation (protein)
chain: QEAEEDLPSARITCPEGSNAYSSYCYYFMEDHLSWAEADLFCQNMNSGYLVSVLSQAEGNFLASLIKESGTTAANVWIGLHDPKNNRRWHWSSGSLFLYKSWDTGYPNNSNRGYCVSVTSNSGYKKWRDNSCDAQLSFVCKFKA
- proliferation and apoptosis of the cells [7]: induced not only proliferation but also apoptosis

B2: Recombinant rat Reg protein: recombinant rat Reg protein, 165-amino acid protein with a 21-amino acid signal peptide (protein, UniProt P10758 1-165, looked up)
chain: MTRNKYFILLSCLMVLSPSQGQEAEEDLPSARITCPEGSNAYSSYCYYFMEDHLSWAEADLFCQNMNSGYLVSVLSQAEGNFLASLIKESGTTAANVWIGLHDPKNNRRWHWSSGSLFLYKSWDTGYPNNSNRGYCVSVTSNSGYKKWRDNSCDAQLSFVCKFKA
modifications: full-length
notes: recombinant rat Reg protein, 165-amino acid protein with a 21-amino acid signal peptide
- β-cell replication and β-cell mass in the residual pancreas ([4]; 90% depancreatized rats): stimulated β-cell replication and increased the β-cell mass

B3: Human REG protein: human REG protein, 166-amino acid protein with 68% identity to rat Reg protein (protein, UniProt P05451 1-166, looked up)
chain: MAQTSSYFMLISCLMFLSQSQGQEAQTELPQARISCPEGTNAYRSYCYYFNEDRETWVDADLYCQNMNSGNLVSVLTQAEGAFVASLIKESGTDDFNVWIGLHDPKKNRRWHWSSGSLVSYKSWGIGAPSSVNPGYCVSLTSSTGFQKWKDVPCEDKFSFVCKFKN
modifications: full-length
notes: human REG protein, 166-amino acid protein with 68% identity to rat Reg protein
- β-cell mass [8]: induced an expansion of the β-cell mass
